Our source for the inhibition values is US12568968B2, “Herbicide combinations comprising glufosinate and epyrifencacil” (BASF SE, priority 2020, dated 2026).

Each structure is given as a SMILES string.

Assay in all cases: Greenhouse post-emergence weed control, percent injury vs untreated control
Common to all, as to format: in vivo

For assay [1], the system named is Abutilon theophrasti (ABUTH). The note with it: 480 h, 20 DAT.
In assay [2] the test system is Amaranthus Palmeri (AMAPA). The note with it: 480 h, 20 DAT.
In assay [3] the test system is Avena fatua (AVEFA). The note with it: 480 h, 20 DAT, 1% MSO.
The test system of assay [4] is Amaranthus tuberculatus (AMATU). The note with it: 480 h, 20 DAT.
The test system of assay [5] is Hordeum vulgare (HORVS). The note with it: 480 h, 20 DAT.
[6] abbreviates: 200 g ai/ha, read-out: Solo Glufosinate % activity.
Where [7] appears, read: 50 g ai/ha, read-out: Solo Glufosinate % activity.
Where [8] appears, read: 0.9 g ai/ha, read-out: Solo epyrifenacil % activity.

Take `CP(=O)(O)CCC(N)C(=O)O` (racemic) [Glufosinate, (2RS)-2-amino-4-[hydroxy(methyl)phosphinoyl]butyric acid]: the inhibition at 200 g/ha in assay [1] (setting [6]) came to 10%; in assay [2] (200 g ai/ha, Table 5, read-out: Solo Glufosinate % activity) it was 75%; in assay [4] (setting [6]), 70%; in assay [5] (setting [6]), 25%. The inhibition at 50 g/ha in assay [3] (setting [7]) and in assay [4] (setting [7]) was 10% throughout. Further, the inhibition at 100 g/ha in assay [4] (100 g ai/ha, read-out: Solo Glufosinate % activity) is 10%.
Take `CCOC(=O)COc1ncccc1Oc1cc(-n2c(=O)cc(C(F)(F)F)n(C)c2=O)c(F)cc1Cl` [epyrifenacil, Acetic acid, 2-[[3-[2-chloro-5-[3,6-dihydro-3-methyl-2,6-dioxo-4-(trifluoromethyl)-1(2H)-pyrimidinyl]-4-fluorophenoxy]-2-pyridinyl]oxy]-, ethyl ester]: in assay [1] (0.1 g ai/ha, read-out: Solo epyrifenacil % activity), the inhibition at 0.1 g/ha turned out to be 25%. In addition, the inhibition at 0.3 g/ha in assay [2] (0.3 g ai/ha, read-out: Solo epyrifenacil % activity) stood at 15%. The inhibition at 0.9 g/ha was determined as 20% in assay [2] (setting [8]); 15% in assay [3] (setting [8]); 75% in assay [4] (0.9 g ai/ha, Table 2, read-out: Solo epyrifenacil % activity); 10% in assay [5] (setting [8]).
